Laboratory results: PubChem BioAssay (NCI)
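Growth conditions: 96-well plates. Treatment: test compound, 48 hours, 5 concentrations. Analysis: linear interpolation between bracketing concentrations; unreached endpoints set to highest concentration. TGI: concentration producing complete growth inhibition.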

Key:
Test in all cases: NCI anticancer screen, dose series, 48 h
A498 renal = system: A498 renal
A549 NSCLC = system: A549 NSCLC
ACHN renal = system: ACHN renal
BT-549 breast = system: BT-549 breast
EKVX NSCLC = system: EKVX NSCLC
HL-60(TB) leukemia = system: HL-60(TB) leukemia
HOP-92 NSCLC = system: HOP-92 NSCLC
LOX IMVI melanoma = system: LOX IMVI melanoma
MOLT-4 leukemia = system: MOLT-4 leukemia
NCI-H23 lung = system: NCI-H23 lung
OVCAR-8 ovarian = system: OVCAR-8 ovarian
RXF 393 renal = system: RXF 393 renal
SF-539 CNS = system: SF-539 CNS
SK-MEL-5 melanoma = system: SK-MEL-5 melanoma
SN12C renal = system: SN12C renal
SNB-75 CNS = system: SNB-75 CNS
TK-10 renal = system: TK-10 renal
UACC-257 melanoma = system: UACC-257 melanoma
UACC-62 melanoma = system: UACC-62 melanoma

SMILES: COc1cc(Cn2c(=S)ss/c2=N\C(=S)N(C)C)cc(OC)c1OC
- TGI (A498 renal): > 100 µM
- TGI (A549 NSCLC): > 100 µM
- TGI (ACHN renal): > 88.8 µM
- TGI (BT-549 breast): > 100 µM
- TGI (EKVX NSCLC): > 100 µM
- TGI (HL-60(TB) leukemia): > 61.5 µM
- TGI (HOP-92 NSCLC): 56.3 µM
- TGI (LOX IMVI melanoma): > 100 µM
- TGI (MOLT-4 leukemia): > 100 µM
- TGI (NCI-H23 lung): 50.6 µM
- TGI (OVCAR-8 ovarian): > 70.9 µM
- TGI (RXF 393 renal): 29.5 µM
- TGI (SF-539 CNS): > 57.7 µM
- TGI (SK-MEL-5 melanoma): 56.4 µM
- TGI (SN12C renal): > 100 µM
- TGI (SNB-75 CNS): 53.9 µM
- TGI (TK-10 renal): > 100 µM
- TGI (UACC-257 melanoma): > 100 µM
- TGI (UACC-62 melanoma): 58.6 µM

SMILES: O=C1CCCCC1=C(I)I
- TGI (A498 renal): 35.5 µM
- TGI (A549 NSCLC): > 100 µM
- TGI (ACHN renal): 31.7 µM
- TGI (BT-549 breast): 26.8 µM
- TGI (EKVX NSCLC): 4.1 µM
- TGI (HL-60(TB) leukemia): 26.2 µM
- TGI (HOP-92 NSCLC): 29 µM
- TGI (MOLT-4 leukemia): 58.3 µM
- TGI (OVCAR-8 ovarian): > 100 µM
- TGI (RXF 393 renal): 30.5 µM
- TGI (SF-539 CNS): 36.6 µM
- TGI (SK-MEL-5 melanoma): 33 µM
- TGI (SN12C renal): 55.6 µM
- TGI (SNB-75 CNS): 47.1 µM
- TGI (UACC-62 melanoma): 33.9 µM

SMILES: CC(C)C1OC2(C)OC(=N)C1(C#N)C(C#N)(C#N)C2C (centres undefined)
- TGI (A498 renal): > 100 µM
- TGI (A549 NSCLC): > 100 µM
- TGI (ACHN renal): > 100 µM
- TGI (BT-549 breast): > 100 µM
- TGI (EKVX NSCLC): 53.4 µM
- TGI (HL-60(TB) leukemia): 37 µM
- TGI (HOP-92 NSCLC): 34.7 µM
- TGI (LOX IMVI melanoma): 41.5 µM
- TGI (MOLT-4 leukemia): > 100 µM
- TGI (NCI-H23 lung): > 100 µM
- TGI (OVCAR-8 ovarian): 79.5 µM
- TGI (RXF 393 renal): > 100 µM
- TGI (SF-539 CNS): 66 µM
- TGI (SK-MEL-5 melanoma): 26.6 µM
- TGI (SN12C renal): 26.8 µM
- TGI (SNB-75 CNS): > 100 µM
- TGI (TK-10 renal): > 100 µM
- TGI (UACC-257 melanoma): > 100 µM
- TGI (UACC-62 melanoma): 80.5 µM

SMILES: CCOP(=O)(OCC)/C(C#N)=C/c1ccc(-c2ccc(F)cc2F)o1
- TGI (A498 renal): 28.8 µM
- TGI (A549 NSCLC): 30.2 µM
- TGI (ACHN renal): 26.6 µM
- TGI (BT-549 breast): 24.5 µM
- TGI (EKVX NSCLC): 31 µM
- TGI (HL-60(TB) leukemia): 34.9 µM
- TGI (HOP-92 NSCLC): 35.7 µM
- TGI (LOX IMVI melanoma): 32.9 µM
- TGI (MOLT-4 leukemia): 28.4 µM
- TGI (NCI-H23 lung): 33.6 µM
- TGI (OVCAR-8 ovarian): 33.2 µM
- TGI (RXF 393 renal): > 100 µM
- TGI (SF-539 CNS): 35.8 µM
- TGI (SK-MEL-5 melanoma): 35.7 µM
- TGI (SN12C renal): 29.7 µM
- TGI (SNB-75 CNS): 61.3 µM
- TGI (TK-10 renal): 25.5 µM
- TGI (UACC-257 melanoma): 26.8 µM
- TGI (UACC-62 melanoma): 23.4 µM

SMILES: CCOP(=O)(OCC)C(Nc1cccc([N+](=O)[O-])c1)c1ccccc1 (centres undefined)
- TGI (A498 renal): > 100 µM
- TGI (A549 NSCLC): > 100 µM
- TGI (ACHN renal): > 100 µM
- TGI (BT-549 breast): > 100 µM
- TGI (EKVX NSCLC): > 100 µM
- TGI (HL-60(TB) leukemia): > 100 µM
- TGI (HOP-92 NSCLC): > 100 µM
- TGI (LOX IMVI melanoma): > 100 µM
- TGI (MOLT-4 leukemia): > 100 µM
- TGI (NCI-H23 lung): > 100 µM
- TGI (RXF 393 renal): > 100 µM
- TGI (SF-539 CNS): > 100 µM
- TGI (SK-MEL-5 melanoma): > 100 µM
- TGI (SN12C renal): > 100 µM
- TGI (SNB-75 CNS): > 100 µM
- TGI (TK-10 renal): > 100 µM
- TGI (UACC-257 melanoma): > 100 µM
- TGI (UACC-62 melanoma): > 100 µM

SMILES: Cc1nc(-n2[nH]c(C)c(CCO)c2=O)[nH]c(=O)c1CCO
- TGI (A498 renal): > 100 µM
- TGI (A549 NSCLC): > 100 µM
- TGI (ACHN renal): > 100 µM
- TGI (BT-549 breast): > 100 µM
- TGI (EKVX NSCLC): > 100 µM
- TGI (HL-60(TB) leukemia): > 100 µM
- TGI (HOP-92 NSCLC): > 100 µM
- TGI (LOX IMVI melanoma): > 100 µM
- TGI (MOLT-4 leukemia): > 100 µM
- TGI (NCI-H23 lung): > 100 µM
- TGI (OVCAR-8 ovarian): > 100 µM
- TGI (RXF 393 renal): > 100 µM
- TGI (SF-539 CNS): > 100 µM
- TGI (SK-MEL-5 melanoma): > 100 µM
- TGI (SN12C renal): > 100 µM
- TGI (SNB-75 CNS): > 100 µM
- TGI (TK-10 renal): > 100 µM
- TGI (UACC-257 melanoma): > 100 µM
- TGI (UACC-62 melanoma): > 100 µM
